Test results taken from patent US20200199102A1, “COMPOUNDS THAT PARTICIPATE IN COOPERATIVE BINDING AND USES THEREOF” (Revolution Medicines, Inc., priority 2017, published 2020).
Where a SMILES comes first, the peptide text is derived from it. [ ]: non-standard residue; d: D form. MeBmt = C/C=C/C[C@@H](C)[C@@H](O)[C@H](NC)C(=O)O; NMeY = CN[C@@H](Cc1ccc(O)cc1)C(=O)O; NMeF = CN[C@@H](Cc1ccccc1)C(=O)O; NMeI = CC[C@H](C)[C@H](NC)C(=O)O; NMeT = CN[C@H](C(=O)O)[C@@H](C)O; NMeL = CN[C@@H](CC(C)C)C(=O)O; NMeV = CN[C@H](C(=O)O)C(C)C; NMeA = CN[C@@H](C)C(=O)O; dNMeA = CN[C@H](C)C(=O)O; Abu = CC[C@H](N)C(=O)O; Sar = CNCC(=O)O

Target: T1, Cyclophilin A (Homo sapiens, UniProt P62937)
T1 construct: made in house
T1 sequence (P62937 whole entry, species assumed): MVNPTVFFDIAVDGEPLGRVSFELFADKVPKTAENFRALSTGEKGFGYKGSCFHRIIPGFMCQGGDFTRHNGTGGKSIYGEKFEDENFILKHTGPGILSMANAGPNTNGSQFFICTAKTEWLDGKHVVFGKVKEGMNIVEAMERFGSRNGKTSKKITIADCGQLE
Assay: AlphaLISA inhibition of binding of biotinylated Cyclosporin A to FLAG tagged Cyclophilin A
Settings: for % signal: AlphaLISA signal; for % signal / % inhibition of CsA binding to Cyclophilin A: test concentration not given; for IC50: read-out: IC50 value of CsA binding to Cyclophilin A
Description: The binding of compounds of the invention to Cyclophilin A can be determined using the following protocol.
This protocol utilizes Perkin Elmers AlphaLISA technology platform to detect cyclosporine analogues by measuring the inhibition of binding of biotinylated Cyclosporin A to FLAG tagged Cyclophilin A.
10×TBST Buffer (Boston BioProducts IBB-181), Biotinylated Cyclosporin A (in-house), FLAG tagged Cyclophilin A (in-house); anti-FLAG Donor beads (PerkinElmer AS103) and Streptavidin Acceptor beads (PerkinElmer AL125); Compounds in DMSO (in-house), Cyclosporin A (LC Labs Cat #C-6000).
Add 20 uL of 6 nM Biotinylated CsA working stock to each well of the 96-well plate. Add 1 uL of test compound (100% DMSO) to each well of the plate using the Janus MTD head and P20 tips (except control wells). Add 1 uL of DMSO to negative control wells and 1 uL of 500 uM Cyclosporin A solution to positive control wells. In the dark, add 20 uL of combined Donor/Acceptor beads to each well. Incubate in the dark for 30 minutes at room temperature. In the dark, add 10 uL of 25 nM Flag tagged CypA working stock to each well. Incubate in the dark for 60 minutes at room temperature. Protect plate from light until reading on Biotek Synergy2 Plate Reader; Alphalisa 96-well protocol (680 excitation/615 emission).

| Compound | % signal [%] | IC50 [µM] | % inhibition of CsA binding to Cyclophilin A [%] |
| --- | --- | --- | --- |
| C/C=C/C[C@@H](C)[C@@H](O)[C@H]1C(=O)N[C@@H](CC)C(=O)N(C)CC(=O)N(C)[C@@H]([C@@H](C)CC)C(=O)N[C@@H](C(C)C)C(=O)N(C)[C@@H](C)C(=O)N[C@@H](C)C(=O)N[C@H](C)C(=O)N(C)[C@@H](CC(C)C)C(=O)N(C)[C@@H](CC(C)C)C(=O)N(C)[C@@H](C(C)C)C(=O)N1C [Compound C1] (cyclo([MeBmt][Abu][Sar][NMeI]V[NMeA]A[dA][NMeL][NMeL][NMeV])) | 0.56 | < 2 | 99.44 |
| C/C=C/C[C@@H](C)[C@@H](O)[C@H]1C(=O)N[C@@H](CC)C(=O)N(C)CC(=O)N(C)[C@@H](C)C(=O)N[C@@H](C(C)C)C(=O)N(C)[C@@H](C)C(=O)N[C@@H](C)C(=O)N[C@H](C)C(=O)N(C)[C@@H](CC(C)C)C(=O)N(C)[C@@H](CC(C)C)C(=O)N(C)[C@@H](C(C)C)C(=O)N1C [Compound C2] (cyclo([MeBmt][Abu][Sar][NMeA]V[NMeA]A[dA][NMeL][NMeL][NMeV])) | 5.25 | < 2 | 94.75 |
| C/C=C/C[C@@H](C)[C@@H](O)[C@H]1C(=O)N[C@@H](CC)C(=O)N(C)CC(=O)N(C)[C@H](C)C(=O)N[C@@H](C(C)C)C(=O)N(C)[C@@H](C)C(=O)N[C@@H](C)C(=O)N[C@H](C)C(=O)N(C)[C@@H](CC(C)C)C(=O)N(C)[C@@H](CC(C)C)C(=O)N(C)[C@@H](C(C)C)C(=O)N1C [Compound C3] (cyclo([MeBmt][Abu][Sar][dNMeA]V[NMeA]A[dA][NMeL][NMeL][NMeV])) | 13.43 | < 2 | 86.57 |
| C/C=C/C[C@@H](C)[C@@H](O)[C@H]1C(=O)N[C@@H](CC)C(=O)N(C)CC(=O)N(C)[C@@H](Cc2ccccc2)C(=O)N[C@@H](C(C)C)C(=O)N(C)[C@@H](C)C(=O)N[C@@H](C)C(=O)N[C@H](C)C(=O)N(C)[C@@H](CC(C)C)C(=O)N(C)[C@@H](CC(C)C)C(=O)N(C)[C@@H](C(C)C)C(=O)N1C [Compound C4] (cyclo([MeBmt][Abu][Sar][NMeF]V[NMeA]A[dA][NMeL][NMeL][NMeV])) | 4.12 | < 2 | 95.88 |
| C/C=C/C[C@@H](C)[C@@H](O)[C@H]1C(=O)N[C@@H](CC)C(=O)N(C)CC(=O)N(C)CC(=O)N[C@@H](C(C)C)C(=O)N(C)[C@@H](C)C(=O)N[C@@H](C)C(=O)N[C@H](C)C(=O)N(C)[C@@H](CC(C)C)C(=O)N(C)[C@@H](CC(C)C)C(=O)N(C)[C@@H](C(C)C)C(=O)N1C [Compound C5] (cyclo([MeBmt][Abu][Sar][Sar]V[NMeA]A[dA][NMeL][NMeL][NMeV])) | 9.09 | < 2 | 90.91 |
| C/C=C/C[C@@H](C)[C@@H](O)[C@H]1C(=O)N[C@@H](CC)C(=O)N(C)CC(=O)N(C)[C@@H](CC(C)C)C(=O)N[C@@H](C(C)C)C(=O)N(C)[C@@H](C)C(=O)N[C@@H](C)C(=O)N[C@H](C)C(=O)N(C)[C@@H](CC(C)C)C(=O)N(C)[C@@H](CC(C)C)C(=O)N(C)[C@@H](C(C)C)C(=O)N1C [Compound C6] | 7.29 | < 2 | 92.71 |
| C/C=C/C[C@@H](C)[C@@H](O)[C@H]1C(=O)N[C@@H](CC)C(=O)N(C)CC(=O)N(C)[C@@H]([C@@H](C)O)C(=O)N[C@@H](C(C)C)C(=O)N(C)[C@@H](C)C(=O)N[C@@H](C)C(=O)N[C@H](C)C(=O)N(C)[C@@H](CC(C)C)C(=O)N(C)[C@@H](CC(C)C)C(=O)N(C)[C@@H](C(C)C)C(=O)N1C [Compound C7] (cyclo([MeBmt][Abu][Sar][NMeT]V[NMeA]A[dA][NMeL][NMeL][NMeV])) | 2.65 | < 2 | 97.35 |
| C/C=C/C[C@@H](C)[C@@H](O)[C@H]1C(=O)N[C@@H](CC)C(=O)N(C)CC(=O)N(C)[C@@H]([C@@H](C)CC)C(=O)N[C@@H](CC(C)C)C(=O)N(C)[C@@H](C)C(=O)N[C@@H](C)C(=O)N[C@H](C)C(=O)N(C)[C@@H](CC(C)C)C(=O)N(C)[C@@H](CC(C)C)C(=O)N(C)[C@@H](C(C)C)C(=O)N1C [Compound C9] (cyclo([MeBmt][Abu][Sar][NMeI]L[NMeA]A[dA][NMeL][NMeL][NMeV])) | 0.11 | < 2 | 99.89 |
| C/C=C/C[C@@H](C)[C@@H](O)[C@H]1C(=O)N[C@@H](CC)C(=O)N(C)CC(=O)N(C)[C@@H](C)C(=O)N[C@@H](CC(C)C)C(=O)N(C)[C@@H](C)C(=O)N[C@@H](C)C(=O)N[C@H](C)C(=O)N(C)[C@@H](CC(C)C)C(=O)N(C)[C@@H](CC(C)C)C(=O)N(C)[C@@H](C(C)C)C(=O)N1C [Compound C10] (cyclo([MeBmt][Abu][Sar][NMeA]L[NMeA]A[dA][NMeL][NMeL][NMeV])) | 0.56 | < 2 | 99.44 |
| C/C=C/C[C@@H](C)[C@@H](O)[C@H]1C(=O)N[C@@H](CC)C(=O)N(C)CC(=O)N(C)[C@@H](Cc2ccccc2)C(=O)N[C@@H](CC(C)C)C(=O)N(C)[C@@H](C)C(=O)N[C@@H](C)C(=O)N[C@H](C)C(=O)N(C)[C@@H](CC(C)C)C(=O)N(C)[C@@H](CC(C)C)C(=O)N(C)[C@@H](C(C)C)C(=O)N1C [Compound C12] (cyclo([MeBmt][Abu][Sar][NMeF]L[NMeA]A[dA][NMeL][NMeL][NMeV])) | 3.22 | < 2 | 96.78 |
| C/C=C/C[C@@H](C)[C@@H](O)[C@H]1C(=O)N[C@@H](CC)C(=O)N(C)CC(=O)N(C)CC(=O)N[C@@H](CC(C)C)C(=O)N(C)[C@@H](C)C(=O)N[C@@H](C)C(=O)N[C@H](C)C(=O)N(C)[C@@H](CC(C)C)C(=O)N(C)[C@@H](CC(C)C)C(=O)N(C)[C@@H](C(C)C)C(=O)N1C [Compound C13] (cyclo([MeBmt][Abu][Sar][Sar]L[NMeA]A[dA][NMeL][NMeL][NMeV])) | 2.70 | < 2 | 97.30 |
| C/C=C/C[C@@H](C)[C@@H](O)[C@H]1C(=O)N[C@@H](CC)C(=O)N(C)CC(=O)N(C)[C@@H](CC(C)C)C(=O)N[C@@H](CC(C)C)C(=O)N(C)[C@@H](C)C(=O)N[C@@H](C)C(=O)N[C@H](C)C(=O)N(C)[C@@H](CC(C)C)C(=O)N(C)[C@@H](CC(C)C)C(=O)N(C)[C@@H](C(C)C)C(=O)N1C [Compound C14] (cyclo([MeBmt][Abu][Sar][NMeL]L[NMeA]A[dA][NMeL][NMeL][NMeV])) | 9.36 | < 2 |  |
| C/C=C/C[C@@H](C)[C@@H](O)[C@H]1C(=O)N[C@@H](CC)C(=O)N(C)CC(=O)N(C)[C@@H]([C@@H](C)O)C(=O)N[C@@H](CC(C)C)C(=O)N(C)[C@@H](C)C(=O)N[C@@H](C)C(=O)N[C@H](C)C(=O)N(C)[C@@H](CC(C)C)C(=O)N(C)[C@@H](CC(C)C)C(=O)N(C)[C@@H](C(C)C)C(=O)N1C [Compound C15] (cyclo([MeBmt][Abu][Sar][NMeT]L[NMeA]A[dA][NMeL][NMeL][NMeV])) | 2.93 | < 2 | 97.07 |
| C/C=C/C[C@@H](C)[C@@H](O)[C@H]1C(=O)N[C@@H](CC)C(=O)N(C)CC(=O)N(C)[C@@H](Cc2ccc(O)cc2)C(=O)N[C@@H](CC(C)C)C(=O)N(C)[C@@H](C)C(=O)N[C@@H](C)C(=O)N[C@H](C)C(=O)N(C)[C@@H](CC(C)C)C(=O)N(C)[C@@H](CC(C)C)C(=O)N(C)[C@@H](C(C)C)C(=O)N1C [Compound C16] (cyclo([MeBmt][Abu][Sar][NMeY]L[NMeA]A[dA][NMeL][NMeL][NMeV])) | 2.56 | < 2 | 97.44 |
| C/C=C/C[C@@H](C)[C@@H](O)[C@H]1C(=O)N[C@@H](CC)C(=O)N(C)CC(=O)N(C)[C@@H]([C@@H](C)CC)C(=O)N[C@@H](C)C(=O)N(C)CC(=O)N[C@@H](C)C(=O)N[C@H](C)C(=O)N(C)[C@@H](CC(C)C)C(=O)N(C)[C@@H](CC(C)C)C(=O)N(C)[C@@H](C(C)C)C(=O)N1C [Compound C17] (cyclo([MeBmt][Abu][Sar][NMeI]A[Sar]A[dA][NMeL][NMeL][NMeV])) | 17.17 | < 2 | 82.83 |
| C/C=C/C[C@@H](C)[C@@H](O)[C@H]1C(=O)N[C@@H](CC)C(=O)N(C)CC(=O)N(C)[C@@H](C)C(=O)N[C@@H](C)C(=O)N(C)CC(=O)N[C@@H](C)C(=O)N[C@H](C)C(=O)N(C)[C@@H](CC(C)C)C(=O)N(C)[C@@H](CC(C)C)C(=O)N(C)[C@@H](C(C)C)C(=O)N1C [Compound C18] (cyclo([MeBmt][Abu][Sar][NMeA]A[Sar]A[dA][NMeL][NMeL][NMeV])) | 2.12 | < 2 |  |
